# Laboratory results published in PubChem BioAssay AID1508610 (The Scripps Research Institute Molecular Screening Center, 2020).
# Activity calls are given as the source filed them. How the calls were made is not given here.
# Target: G-protein coupled receptor 151 (Homo sapiens) (UniProt Q8TDV0)
# Assay: GPR151 activator potency, dose response, cell-based (AID 1508610)
# Conditions: cell-based GPR151 activation reporter
# G-protein coupled receptor 151 (Homo sapiens), sequence (Q8TDV0 whole entry, looked up): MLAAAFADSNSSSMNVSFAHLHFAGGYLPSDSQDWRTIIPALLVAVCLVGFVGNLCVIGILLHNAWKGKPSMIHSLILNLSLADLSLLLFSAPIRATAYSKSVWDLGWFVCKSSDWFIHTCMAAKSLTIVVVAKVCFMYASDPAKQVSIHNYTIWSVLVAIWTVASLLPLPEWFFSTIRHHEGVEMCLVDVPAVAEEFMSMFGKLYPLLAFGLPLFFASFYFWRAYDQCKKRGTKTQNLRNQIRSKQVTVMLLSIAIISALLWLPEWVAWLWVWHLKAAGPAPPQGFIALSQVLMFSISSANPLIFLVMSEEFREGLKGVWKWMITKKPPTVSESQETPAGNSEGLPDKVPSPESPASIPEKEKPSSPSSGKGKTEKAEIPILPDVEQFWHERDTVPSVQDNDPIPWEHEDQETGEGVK
row,Compound,EC50
1,Cc1ccc(CNC(=O)c2csnn2)cc1,> 28 µM (inactive)
2,COc1ccccc1C1c2c(oc3ccc(C)cc3c2=O)C(=O)N1CCN1CCOCC1 (configuration not stated),0.00152 µM
3,CCOc1cc(/C=c2/sc3n(c2=O)CCN=3)ccc1O,> 40 µM (inactive)
4,COCCNC(=O)/C(C#N)=C/C=C/c1ccccc1,> 30.6 µM (inactive)
5,Cc1ccc2nc(-c3ccc(O)cc3)[nH]c2c1,> 28 µM (inactive)
6,COc1ccc(CCn2c(=S)[nH]c3cc(C(=O)N4CCOCC4)ccc3c2=O)cc1OC,> 22.2 µM (inactive)
7,C/C(=C\c1ccccc1)C(=O)Nc1ccccc1C(=O)O,> 31.9 µM (inactive)
8,Cc1ccc(/C(=N/NC(=O)Cc2ccccc2)C23CN4CN(CN(C4)C2)C3)cc1,> 28 µM (inactive)
9,CC(C)N1CCN(Cc2ccc(OC3CCCC3)cc2)CC1CCO (configuration not stated),0.00143 µM
10,O=C(CSc1nc(NC2CCCCC2)c2ccccc2n1)c1ccc(F)cc1,> 28.1 µM (inactive)
11,O=S(=O)(O)c1ccc2nc(-c3ccccc3)[nH]c2c1,> 28 µM (inactive)
12,O=C(CSc1nc(-c2ccccc2)cs1)Nc1ccccc1,> 28 µM (inactive)
13,O=C(O)c1cccc(NC(=O)c2ccc(Br)o2)c1,> 28 µM (inactive)
14,CCc1cc2c(cc3c(=O)n(CC(=O)NCc4ccccc4Br)ncn32)s1,> 28 µM (inactive)
15,O=C(COC(=O)CCS(=O)(=O)c1ccccc1Cl)NC(=O)NCc1ccco1,> 28.7 µM (inactive)
16,C=CCN(c1ccc(C(=O)Nc2ccc(Cl)cc2)cc1)S(C)(=O)=O,> 28 µM (inactive)
17,CCOC(=O)COc1ccc2c(=O)c(Oc3cccc(OC)c3)coc2c1,> 28 µM (inactive)
18,O=S(=O)(c1ccc(-c2csc(=Nc3cccc(Cl)c3)n2CCCO)cc1)N1CCCCC1,> 17.6 µM (inactive)
19,C/C(=N\NC(=S)NCc1ccco1)c1cccc([N+](=O)[O-])c1,> 28.2 µM (inactive)
20,COc1ccc(C(=O)Nc2nc(C)cs2)c(OC)n1,> 28 µM (inactive)
21,COc1cc(C2NC(=O)NC(C)=C2C(C)=O)cc(Br)c1OCc1ccccc1 (configuration not stated),> 28 µM (inactive)
22,O=c1oc2ccccc2cc1-c1cn2ccccc2n1,> 34.7 µM (inactive)
23,CCN1CCc2c(sc(NC(=O)c3ccc(S(=O)(=O)N4CCCC(C)C4)cc3)c2C(=O)OC)C1 (configuration not stated),> 27.6 µM (inactive)
24,O=C(/C=C/c1ccc(O)cc1)c1ccc(O)cc1O,> 28 µM (inactive)
25,CCOc1ccccc1NC(=O)N1CCC2(CC1)OCCO2,> 28 µM (inactive)

row,Compound,EC50
1,COc1cc(Nc2ccnc(Nc3ccc(N4CCOCC4)cc3)n2)cc(OC)c1OC,> 28.2 µM (inactive)
2,Cc1ccc(Nc2nc(N(C)C)nc3c2cnn3C)cc1C,> 28.4 µM (inactive)
3,COc1ccc(C[C@H](N)C(=O)N[C@@H]2[C@@H](CO)OC(n3cnc4c(N(C)C)ncnc43)[C@@H]2O)cc1 (some centres not stated),> 28 µM (inactive)
4,CC[n+]1c(/C=C2\Sc3ccc(C)cc3N2CCO)ccc2ccccc21,inactive
5,O=c1oc(Nc2cccc(C(F)(F)F)c2)nc2ccccc12,> 28.4 µM (inactive)
6,CC(C)Cn1c(-c2nn(C)cc2Cl)n[nH]c1=S,> 28 µM (inactive)
7,O=C(NCc1ccc(Cl)cc1)C1C2C=CC3(CN(Cc4ccccc4)C(=O)C13)O2 (configuration not stated),> 25.1 µM (inactive)
8,Cc1ccsc1C(=O)Nc1nc2ccc(S(C)(=O)=O)cc2s1,> 28.6 µM (inactive)
9,CC(=O)OC(C(=O)NCc1ccco1)c1ccncc1 (configuration not stated),> 28 µM (inactive)
10,Cc1ccc(C(=O)NN=C2CCC(C)CC2)cc1 (configuration not stated),> 28 µM (inactive)
11,COc1cccc(/C=C(\C#N)c2nc3ccc(C)cc3[nH]2)c1OC,> 33.2 µM (inactive)
12,C=CCN1C(=O)/C(=C/c2ccc(OCC(=O)O)cc2)S/C1=N/c1nccs1,> 28 µM (inactive)
13,COc1ccc(OC)c(C(C)NC(=O)c2ccccc2Cl)c1 (configuration not stated),> 28 µM (inactive)
14,O=C(Nc1noc2ccccc12)c1c(F)cccc1F,> 28 µM (inactive)
15,Cc1ccc(C(=O)Nc2ncc([N+](=O)[O-])s2)cc1,> 31.4 µM (inactive)
16,COc1ccc(Cn2nccc2N)cc1OC,> 28.8 µM (inactive)
17,Cc1ccc(C(=O)Nc2cccc(C(=O)O)c2)cc1,> 32.6 µM (inactive)
18,CCC(=O)N1CCN(c2ccc(NC(=O)c3ccco3)cc2)CC1,> 28 µM (inactive)
19,O=C(O)c1cc(N=Cc2ccco2)ccc1O,> 28 µM (inactive)
20,O=C(/C=C/c1cccc([N+](=O)[O-])c1)NC1C2CC3CC(C2)CC1C3 (configuration not stated),> 34 µM (inactive)
21,c1ccc(Oc2nc(NC3CC3)c3ncn(-c4ccsc4)c3n2)cc1,inactive
22,COc1ccc(CNC(=O)CCCn2cccc2)cc1,> 28 µM (inactive)
23,O=c1oc2cc(O)ccc2cc1-c1ccccc1,> 28.2 µM (inactive)
24,CC(=O)OCC1=C(C(=O)O)N2C(=O)[C@@H](NC(=O)Cc3cccs3)[C@H]2SC1,> 28 µM (inactive)
25,Fc1ccc2nc(N3CCN(c4nc5ccccc5s4)CC3)sc2c1,> 28 µM (inactive)

row,Compound,EC50
1,COc1ccc(/C=C2/NC(=O)N(c3cccc(Cl)c3)C2=O)c(OC)c1,> 28 µM (inactive)
2,O=C(Nc1ncc([N+](=O)[O-])s1)c1ccc(Br)cc1F,> 27.5 µM (inactive)
3,Cc1nc(/C=C/c2ccc(Cl)cc2)sc1C(=O)O,> 32 µM (inactive)
4,Cc1ccc2c(c1)N(CC(=O)Nc1ccc(Cl)cc1)C(=O)C(C)O2 (configuration not stated),> 28 µM (inactive)
5,CC(C)CC(NC(=O)C(C)NC(=O)CNC(=O)C(NC=O)C(C)C)C(=O)NC(C)C(=O)NC(C(=O)NC(C(=O)NC(C(=O)NC(Cc1c[nH]c2ccccc12)C(=O)NC(CC(C)C)C(=O)NC(Cc1c[nH]c2ccccc12)C(=O)NC(CC(C)C)C(=O)NC(Cc1c[nH]c2ccccc12)C(=O)NC(CC(C)C)C(=O)NC(Cc1c[nH]c2ccccc12)C(=O)NCCO)C(C)C)C(C)C)C(C)C (configuration not stated),0.97 µM
6,COc1cccc(OC)c1C(=O)Nc1ccc(Br)cn1,> 28 µM (inactive)
7,Cn1nc(C(=O)NCc2ccc(F)cc2)c2c1-c1ccccc1OC2,> 28 µM (inactive)
8,COC(=O)c1ccc(C2C(C#N)=C(N)Oc3n[nH]c(C45CC6CC(CC(C6)C4)C5)c32)cc1 (configuration not stated),inactive
9,Cc1c(C(=O)Nc2cc(Sc3ccc(F)cc3)cc([N+](=O)[O-])c2)sc2ncn(Cc3ccccc3F)c(=O)c12,> 20.2 µM (inactive)
10,CC1CC(=O)N(C)c2ccccc2S1 (configuration not stated),> 28 µM (inactive)
11,O=C(O)c1cccc(COc2ccc3ccccc3c2)c1,> 28 µM (inactive)
12,COc1ccc(-c2ccc(C(=O)NCCO)s2)cn1,> 27.9 µM (inactive)
13,C#CCN1CCc2cc(OC)c(OC)cc2C1C (configuration not stated),> 28 µM (inactive)
14,COc1cccc(NC(=O)c2oc3ccc4c(c3c2C)C(=O)CC(C)(C)O4)c1,> 28 µM (inactive)
15,COc1cc(C2Nc3ccccc3NC3=C2C(=O)CC(c2ccc4c(c2)OCO4)C3)ccc1OC(C)=O (configuration not stated),> 23.3 µM (inactive)
16,O=C(O)CCC(NCC(O)Cn1c2ccccc2c2ccccc21)C(=O)O (configuration not stated),> 28.7 µM (inactive)
17,Cn1c(=O)oc2cc(S(=O)(=O)N3CCCC(C(=O)N4CCOCC4)C3)ccc21 (configuration not stated),> 28 µM (inactive)
18,CCCCNc1c(N2CCCC(C(=O)OCC)C2)c(=O)c1=O (configuration not stated),> 28 µM (inactive)
19,COC(=O)c1cccc(NC(=O)c2cccc(Br)c2)c1C,> 28 µM (inactive)
20,CC(=O)Nc1ccc(Nc2ccnc(N3CCc4ccccc4C3)n2)cc1,inactive
21,CCOc1ccc(/C=C2\SC(=S)N(CC(=O)Nc3ccc(O)cc3)C2=O)cc1,> 28.4 µM (inactive)
22,Cc1ccc(C(=O)Nc2nc(Cl)c(C#N)s2)cc1,> 28.2 µM (inactive)
23,O=C(NCCOc1ccccc1)c1ccc(-c2ccc(N3CCOCC3)nc2)s1,> 33 µM (inactive)
24,CCCCNC(=O)/C(=C/c1ccccc1)NC(=O)/C=C/c1ccco1,> 28 µM (inactive)
25,COc1ccccc1N=C1SC(CC(=O)Nc2cccc([N+](=O)[O-])c2)C(=O)N1C (configuration not stated),> 28 µM (inactive)

row,Compound,EC50
1,O=C1N(CN2CCC3(CC2)OCCO3)c2ccccc2C12OCCCO2,> 28 µM (inactive)
2,Cc1cc(N2CCCCC2)nc2ccc(NC(=O)c3cccc([N+](=O)[O-])c3)cc12,> 29.2 µM (inactive)
3,Cc1ccccc1C(=O)Nc1noc2ccccc12,> 28 µM (inactive)
4,CCOC(=O)c1sc(NC(=O)C2CC2)nc1C,> 28.6 µM (inactive)
5,Cn1c2c(c(=O)n(C)c1=O)C(c1cccc(F)c1)C1=C(CC(C)(C)CC1=O)N2 (configuration not stated),> 27.8 µM (inactive)
6,CC(C)CC(=O)NCC1CCC2(CCN(Cc3ccccc3F)CC2)O1 (configuration not stated),> 28 µM (inactive)
7,CCC(C)C1N=C2c3ccccc3N=C(SCC(=O)N3CC(C)CC(C)C3)N2C1=O (configuration not stated),> 29.4 µM (inactive)
8,COc1ccc(-c2ccc(C(=O)NCCO)s2)cc1,> 27.9 µM (inactive)
9,CSc1nc2ccc(NC(=O)Cn3cnc4ccccc4c3=O)cc2s1,> 29.3 µM (inactive)
10,Cc1c(N=Nc2c(O)[nH]c(=S)[nH]c2=O)c(=O)n(-c2ccccc2)n1C,> 28 µM (inactive)
11,Cc1ccc2c(c1)CN(CCC(=O)NCCCn1nnc3ccccc31)CC(C)O2 (configuration not stated),> 28 µM (inactive)
12,COc1ccccc1N1CCN(C(=O)c2cnc(N3CCN(c4ncccn4)CC3)c3ccccc23)CC1,> 20.1 µM (inactive)
13,Cc1ccccc1N(CC(=O)N1CCOCC1)S(=O)(=O)c1ccc(Cl)cc1,> 28 µM (inactive)
14,O=C(O)c1ccc(-n2cc(-c3cnccn3)cn2)cc1,> 28 µM (inactive)
15,CSC1=NSC2=NC(=O)/C(=C\c3ccc([N+](=O)[O-])cc3)C(=N)N12,> 28 µM (inactive)
16,Cc1nn(C)cc1CN1CCOc2ccc(CN3CCc4ccccc4C3)cc2C1,> 28 µM (inactive)
17,N=c1sc2c(n1CC(=O)c1ccccc1)CCCC2,> 27 µM (inactive)
18,O=C(Nc1ccc(NC(=O)c2cccc3c(Br)cccc23)cc1)c1ccco1,> 24.4 µM (inactive)
19,CCOC(=O)c1cc2c(c(CSc3nc4ccccc4c(=O)n3Cc3ccc4c(c3)OCO4)c1)OCOC2,> 21.4 µM (inactive)
20,CCN(CC)C(=O)CN(c1ccccc1)S(=O)(=O)c1ccc(C)cc1,> 28 µM (inactive)
21,COc1ccc(/C=C/C(=O)Nc2ccccc2F)cc1,> 30.5 µM (inactive)
22,COc1cccc(-c2ccc(SCC(=O)Nc3cc(C)on3)nn2)c1,> 28.3 µM (inactive)
